One may read the MIC50 as an inhibitory concentration at the 50% level, which refers to growth in some studies and to a panel of isolates in others.

Molecules are shown by their SMILES. The source made the active and inactive calls. No cut-off for these calls is given here.

The values that follow come from ChEMBL document CHEMBL5113529, “Design, Synthesis, and Biological Evaluation of Dual-Target COX-2/CYP51 Inhibitors for the Treatment of Fungal Infectious Diseases” (J Med Chem, 2022).

Series [1] relates to Candida albicans. Briefly: Antifungal activity against Candida albicans ATCC SC5314 assessed as fungal growth inhibition measured after 72 hrs in presence of naproxen by double dilution method. It is filed as functional.
Series [2] has as its system Candida albicans. Briefly: Antifungal activity against fluconazole- resistant Candida albicans CaR assessed as fungal growth inhibition measured after 72 hrs in presence of naproxen by double dilution method. Format: functional.
In series [3] the test system is Candida albicans. Briefly: Antifungal activity against fluconazole- resistant Candida albicans 632 assessed as fungal growth inhibition measured after 72 hrs in presence of naproxen by double dilution method. It is filed as functional.
The subject of series [4] is Candida albicans. Briefly: Antifungal actvity against Candida albicans ATCC SC5314 infected in mouse assessed as reduction in infection at 10 ug per 20 g, ip administered on day 2, 4, 6, 8, 10 and 12 and measured on day 14 in presence of naproxen. It is filed as functional, organism-based. The following applies: time 14.0 day.
Series [5] in a line: Toxicity in Candida albicans ATCC SC5314 infected-mouse assessed as effect on body weight at 10 ug per 20 g, ip administered on day 2, 4, 6, 8, 10 and 12 and measured on day 14 in presence of naproxen. Format: organism-based. The following applies: in vivo, 336 h, dose 10 µg, time 14 day.
Series [6] can be described thus: Toxicity in mouse infected with Candida albicans assessed as AST level in plasma at 10 ug per 20 g, ip administered on day 2, 4, 6, 8, 10 and 12 and measured on day 14 in presence of naproxen (reference value: 74.9 +/- 6.7 IU/L). The settings on record: in vivo, 336 h, dose 10 µg, time 14 day. It is filed as organism-based.
Series [7] can be described thus: Toxicity in mouse infected with Candida albicans assessed as BUN level in plasma at 10 ug per 20 g, ip administered on day 2, 4, 6, 8, 10 and 12 and measured on day 14 in presence of naproxen (reference value: 8.2 +/- 0.5 mmol/L). Format: organism-based. The following applies: in vivo, 336 h, dose 10 µg, time 14 day.
The species named for series [8] is Mus musculus. Briefly: Antiinflammatory activity in mouse infected with Candida albicans ATCC SC5314 assessed as reduction in MMP-9 expression in spleen in presence of naproxen by hematoxylin staining based inverted microscopic analysis. Format: functional.
For series [9], the species on record is Mus musculus. In words: Immunostimulatory activity in mouse infected with Candida albicans ATCC SC5314 assessed as reduction in PD-L1 expression in spleen in presence of naproxen by western blot analysis relative to control. It is filed as functional. Also on record: scale not given: the % may be the effect or the level left.
Series [10] relates to Candida albicans. In words: Induction of morphological changes in Candida albicans ATCC SC5314 assessed as ribosome abscission measured for 48 to 72 hrs by transmission electron microscopic analysis. The following applies: time 48-72 hrs. It is filed as functional, organism-based.
Series [11] relates to Candida albicans. In words: Induction of morphological changes in Candida albicans ATCC SC5314 assessed as edema cavitation measured for 48 to 72 hrs by transmission electron microscopic analysis. Format: functional, organism-based. The following applies: time 48-72 hrs.

Consider `OC(Cn1cncn1)(Cn1cncn1)c1ccc(F)cc1F` [FLUCONAZOLE], for which the results for the MIC50 in the series with Candida albicans [1], with Candida albicans [2] and with Candida albicans [3] were 0.25 µg/mL, 2 µg/mL and 4 µg/mL, respectively. Besides, the result in the series with Candida albicans [4] was Active. In addition, the Activity entry is “Non-Toxic” in [5]; 76.4 IU/L in series [6]; 9.5 IU/L in series [7]; 26.05 a.u in the series filed under Mus musculus [8]; 14.27% in the series listed under Mus musculus [9].
Regarding `COc1ccc2cc([C@H](C)C(=O)NC(Cn3cncn3)C(=O)c3ccccc3)ccc2c1` (stereo partly specified), the result with Candida albicans [10] and in the series with Candida albicans [11] was Active.
